Source: patent US5188952A, “Process for the decomposition of acrylamide” (Imperial Chemical Industries PLC, priority 1986, dated 1993)

Test system: Methylophilus methylotrophus amidase (acylamide amidohydrolase EC No. 3-5-1-4)
Test: Methylophilus methylotrophus amidase properties (Km)
Assay type: biochemical
Conditions: substrate of the amidase; conditions not given

Row | SMILES | Km [mM]
1 | C=CC(N)=O [Acrylamide] | 10
2 | CC(N)=O [Acetamide] | 0.2
